Experimental data reported in ChEMBL document CHEMBL2074435, “Quantitative analysis of breast cancer resistance protein and cellular resistance to flavopiridol in acute leukemia patients” (Clin Cancer Res, 2003).

Target: T1, Broad substrate specificity ATP-binding cassette transporter ABCG2 (Homo sapiens, UniProt Q9UNQ0)
T1 sequence (Q9UNQ0 whole entry): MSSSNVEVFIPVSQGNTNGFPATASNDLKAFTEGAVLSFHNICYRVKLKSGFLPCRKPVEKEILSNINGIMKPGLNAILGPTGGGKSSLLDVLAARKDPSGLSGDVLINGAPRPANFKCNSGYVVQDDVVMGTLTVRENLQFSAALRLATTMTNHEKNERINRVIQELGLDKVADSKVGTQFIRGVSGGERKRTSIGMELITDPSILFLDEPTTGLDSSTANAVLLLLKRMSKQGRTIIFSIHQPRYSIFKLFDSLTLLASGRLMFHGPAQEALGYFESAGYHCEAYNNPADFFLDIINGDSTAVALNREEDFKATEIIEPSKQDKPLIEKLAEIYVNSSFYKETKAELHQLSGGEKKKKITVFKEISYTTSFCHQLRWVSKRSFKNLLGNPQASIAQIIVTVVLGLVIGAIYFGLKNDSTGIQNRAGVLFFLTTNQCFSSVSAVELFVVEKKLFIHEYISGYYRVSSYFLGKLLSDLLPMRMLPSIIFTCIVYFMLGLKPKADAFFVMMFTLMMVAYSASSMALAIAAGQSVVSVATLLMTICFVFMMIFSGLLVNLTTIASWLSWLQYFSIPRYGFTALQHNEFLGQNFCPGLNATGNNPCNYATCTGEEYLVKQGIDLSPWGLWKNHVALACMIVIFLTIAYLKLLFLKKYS
Assay: TP_TRANSPORTER: correlation hBCRPmRNA with flavopiridol induced apoptosis resistance
Format: functional, cell-based

For CN1CC[C@H](c2c(O)cc(O)c3c(=O)cc(-c4ccccc4Cl)oc23)[C@H](O)C1 [ALVOCIDIB], the Activity was “substrate []”.
